According to BigSolDB 2.1:

Cc1cnc(C(=O)O)c[n+]1[O-]
solubility (mole fraction)
Conditions	283.15 K	288.15 K	293.15 K	298.15 K	303.15 K	308.15 K	313.15 K	318.15 K
in acetone	0.00157	0.00176	0.00198	0.00222	0.00249	0.00279	0.00317	0.00362
in acetonitrile	0.00057	0.000757	0.00097	0.00118	0.00142	0.00172	0.00205	0.00249
in methanol	0.00211	0.00244	0.00285	0.00328	0.00381	0.00443	0.00517	0.00598
in water	0.00198	0.00227	0.00265	0.0031	0.0036	0.00426	0.00498	0.00579
